A value given as a limit tells only on which side of the number the result lay.

For the assay, the system named is beta-TC6 cells. The assay is described as follows: Insulin HTRF assay (relative activity Ar) in beta-TC6 cells. It is filed as cell-based, mouse. Particulars: Mus musculus, Beta-TC6, 4 h, insulin HTRF, supernatant of beta-TC6 cells, incubation with test compound at 37°C for 2, 3, 4h; read-out: Ar (relative activity). In outline:
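beta-TC6 cells (15k/well, seeded 24 or 48 h) washed, then exposed to compound in induction buffer (0.5% DMSO final) for 2, 3 or 4 h at 37°C.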

`COc1cccc(-c2nc3c(Nc4cccc(O)c4)nccc3[nH]2)c1` [Compound 374, 3-[[2-(3-methoxyphenyl)-1H-imidazo[4,5-c]pyridin-4-yl]amino]phenol]: the Emax lay within 50 to 100%. With `Cn1c(NCC2CC2)nc2cnc(-c3ccccc3)cc21` [Compound 826, N-(cyclopropylmethyl)-1-methyl-6-phenyl-imidazo[4,5-c]pyridin-2-amine], the Emax fell in the range of 30 to 50%.

On to `COc1cc(Nc2nccc3[nH]c(-c4ccncc4)nc23)cc(OC)c1OC` [Compound 421, 2-(4-pyridyl)-N-(3,4,5-trimethoxyphenyl)-1H-imidazo[4,5-c]pyridin-4-amine], for which the Emax lay within 50 to 100%. Turning to `Cn1c(NCCN2CCOCC2)nc2cnc(-c3cccc(F)c3)cc21` [Compound 769, 6-(3-fluorophenyl)-1-methyl-N-(2-morpholinoethyl)imidazo[4,5-c]pyridin-2-amine], the Emax is 0 to 30%. Next, `CNc1nc2cnc(Nc3cccc(C(C)=O)c3)cc2n1-c1cccc(F)c1` [Compound 689, 1-[3-[[1-(3-fluorophenyl)-2-(methylamino)imidazo[4,5-c]pyridin-6-yl]amino]phenyl]ethanone]: 50 to 100%. Consider `Cc1cccc(CNc2nc3cnc(-c4ccc(Cl)cc4)cc3n2C)c1` [Compound 581, 6-(4-chlorophenyl)-1-methyl-N-(m-tolylmethyl)imidazo[4,5-c]pyridin-2-amine], for which the Emax was in the range of 30 to 50%. On to `COc1cc(-c2cc3c(cn2)ncn3Cc2ccc(OC)c(OC)c2)ccc1O` [Compound 739, 4-[1-[(3,4-dimethoxyphenyl)methyl]imidazo[4,5-c]pyridin-6-yl]-2-methoxy-phenol], for which the Emax lay in the range of 30 to 50%. Next, `Cn1c(-c2ccco2)nc2cnc(-c3cccc(OC(F)(F)F)c3)cc21` [Compound 756, 2-(2-furyl)-1-methyl-6-[3-(trifluoromethoxy)phenyl]imidazo[4,5-c]pyridine]: 0 to 30%. The value for `CN(C)C(=O)c1ccc(-c2cc3cnc(Nc4cccc(Oc5ccccc5)c4)cc3[nH]2)cc1` [Compound 35, N,N-dimethyl-4-[6-(3-phenoxyanilino)-1H-pyrrolo[3,2-c]pyridin-2-yl]benzamide] was 0 to 30%; that for `CN(C)C(=O)c1ccc(-c2cc3cnc(Nc4cccnc4)cc3[nH]2)cc1` [Compound 22, N,N-dimethyl-4-[6-(3-pyridylamino)-1H-pyrrolo[3,2-c]pyridin-2-yl]benzamide] was more than 100%; that for `COc1ccccc1-c1cc2c(Nc3ccncc3)nccc2[nH]1` [Compound 295, 2-(2-methoxyphenyl)-N-(4-pyridyl)-1H-pyrrolo[3,2-c]pyridin-4-amine] was 50 to 100%. Take `CC(C)Oc1ccc(Nc2nccc3[nH]c(-c4ccsc4)cc23)cc1` [Compound 269, N-(4-isopropoxyphenyl)-2-(3-thienyl)-1H-pyrrolo[3,2-c]pyridin-4-amine]: the Emax fell in the range of 0 to 30%. Take `COc1ccc(Nc2nccc3[nH]c(-c4ccsc4)cc23)cc1OC` [Compound 253, N-(3,4-dimethoxyphenyl)-2-(3-thienyl)-1H-pyrrolo[3,2-c]pyridin-4-amine]: the Emax is 50 to 100%.

`Cn1c(-c2ccco2)nc2cnc(-c3cccc(O)c3)cc21` [Compound 736, 3-[2-(2-furyl)-1-methyl-imidazo[4,5-c]pyridin-6-yl]phenol]: the Emax was 50 to 100%. As to `COC(=O)c1ccc(Nc2cc3c(cn2)cc(-c2cnn(C)c2)n3C)cc1` [Compound 141, methyl 4-[[1-methyl-2-(1-methylpyrazol-4-yl)pyrrolo[3,2-c]pyridin-6-yl]amino]benzoate], the Emax fell in the range of 50 to 100%. The value for `CC(=O)N(C)c1cccc(-c2cc3cnc(Nc4cccnc4)cc3n2C)c1` [Compound 162, N-methyl-N-[3-[1-methyl-6-(3-pyridylamino)pyrrolo[3,2-c]pyridin-2-yl]phenyl]acetamide] was 50 to 100%; that for `COc1cccc(Nc2nccc3[nH]c(-c4ccc(OC)c(OC)c4)nc23)c1` [Compound 341, 2-(3,4-dimethoxyphenyl)-N-(3-methoxyphenyl)-1H-imidazo[4,5-c]pyridin-4-amine] was 50 to 100%; that for `CN(C)C(=O)c1ccc(-c2cc3cnc(Nc4cccc(O)c4)cc3n2C)cc1` [Compound 53, 4-[6-(3-hydroxyanilino)-1-methyl-pyrrolo[3,2-c]pyridin-2-yl]-N,N-dimethyl-benzamide] was 50 to 100%.

As for `COc1ccc(-c2nc3cnc(Nc4cc(OC)c(OC)c(OC)c4)cc3n2C)cc1OC` [Compound 716, 2-(3,4-dimethoxyphenyl)-1-methyl-N-(3,4,5-trimethoxyphenyl)imidazo[4,5-c]pyridin-6-amine], the Emax lay in the range of 50 to 100%. The value for `COc1ccc(Nc2cc3[nH]c(-c4cccc(F)c4)cc3cn2)cc1O` [Compound 11, 5-[[2-(3-fluorophenyl)-1H-pyrrolo[3,2-c]pyridin-6-yl]amino]-2-methoxy-phenol] was 30 to 50%. As to `COc1ccc(-c2nc3c(NCc4ccccc4)nccc3[nH]2)cc1OC` [Compound 347, N-benzyl-2-(3,4-dimethoxyphenyl)-1H-imidazo[4,5-c]pyridin-4-amine], the Emax is 50 to 100%. The value for `COc1cc(-c2cc3c(cn2)nc(NCc2cccc(C)c2)n3C)ccc1O` [Compound 808, 2-methoxy-4-[1-methyl-2-(m-tolylmethylamino)imidazo[4,5-c]pyridin-6-yl]phenol] was 30 to 50%; that for `CNc1nc2cnc(Nc3cccc(C)c3)cc2n1CCN1CCOCC1` [Compound 556, N2-methyl-1-(2-morpholinoethyl)-N6-(m-tolyl)imidazo[4,5-c]pyridine-2,6-diamine] was 30 to 50%. With `Fc1cccc(-c2cc3c(Nc4ccc5c(c4)OCO5)nccc3[nH]2)c1` [Compound 203, N-(1,3-benzodioxol-5-yl)-2-(3-fluorophenyl)-1H-pyrrolo[3,2-c]pyridin-4-amine], the Emax fell in the range of 30 to 50%. Consider `CNc1nc2cnc(Nc3ccc(OC)nc3)cc2n1-c1cccc(C(F)(F)F)c1` [Compound 546, N6-(6-methoxy-3-pyridyl)-N2-methyl-1-[3-(trifluoromethyl)phenyl]imidazo[4,5-c]pyridine-2,6-diamine], for which the Emax lay within 30 to 50%. The value for `COc1ccc(Nc2nccc3[nH]c(-c4cccc(OC)c4F)nc23)cc1OC` [Compound 469, N-(3,4-dimethoxyphenyl)-2-(2-fluoro-3-methoxy-phenyl)-1H-imidazo[4,5-c]pyridin-4-amine] was more than 100%; that for `CC(=O)Nc1ccc(Nc2nccc3[nH]c(-c4cccnc4)cc23)cc1` [Compound 231, N-[4-[[2-(3-pyridyl)-1H-pyrrolo[3,2-c]pyridin-4-yl]amino]phenyl]acetamide] was more than 100%; that for `COc1ccc(-c2nc3c(NCC4CC4)nccc3[nH]2)cc1OC` [Compound 354, N-(cyclopropylmethyl)-2-(3,4-dimethoxyphenyl)-1H-imidazo[4,5-c]pyridin-4-amine] was 50 to 100%. The value for `Cn1c(-c2ccsc2)cc2c(Nc3ccccn3)nccc21` [Compound 280, 1-methyl-N-(2-pyridyl)-2-(3-thienyl)pyrrolo[3,2-c]pyridin-4-amine] was 30 to 50%. As to `CC(=O)Nc1cccc(Nc2cc3c(cn2)cc(-c2cnn(C)c2)n3C)c1` [Compound 149, N-[3-[[1-methyl-2-(1-methylpyrazol-4-yl)pyrrolo[3,2-c]pyridin-6-yl]amino]phenyl]acetamide], the Emax was more than 100%.

These data come from patent EP2818472A1, “Imidazo[4,5-c]pyridine and pyrrolo[3,2-c]pyridine compounds as G-protein-coupled receptor kinase 5 (GRK5) modulators” (Max-Planck-Gesellschaft zur Förderung der Wissenschaften …, priority 2013, dated 2014).
